# Source: ChEMBL document CHEMBL3885881, “DrugMatrix”
# Species on record: Rattus norvegicus
# Assay: DrugMatrix - Regimen: Daily Repeat
# Assay type: toxicity, organism-based, Sprague-Dawley
# Set-up: regimen Daily Repeat, gender Male, age 6-8 weeks
# Conditions: in vivo, po, route oral GAVAGE, vehicle 100 % WATER; for ABSOLUTE BASOPHIL / ABSOLUTE EOSINOPHIL / ABSOLUTE LYMPHOCYTE / ABSOLUTE MONOCYTE / ABSOLUTE SEGMENTED NEUTROPHIL / BASOPHIL / EOSINOPHIL / ERYTHROCYTE COUNT / HEMATOCRIT / HEMOGLOBIN / LEUKOCYTE COUNT / LYMPHOCYTE / MEAN CORPUSCULAR HEMOGLOBIN / MEAN CORPUSCULAR HEMOGLOBIN CONCENTRATION / MEAN CORPUSCULAR VOLUME / MONOCYTE / NEUTROPHIL / NUCLEATED RED BLOOD CELLS / PLATELET COUNT: tissue Blood; for ALANINE AMINOTRANSFERASE / ALBUMIN / ALKALINE PHOSPHATASE / ASPARTATE AMINOTRANSFERASE / BLOOD UREA NITROGEN / CARBON DIOXIDE / CHLORIDE / CHOLESTEROL / CREATINE PHOSPHOKINASE / CREATININE / GLUCOSE / LACTATE DEHYDROGENASE / LIPASE / PHOSPHORUS / POTASSIUM / SODIUM / TOTAL BILIRUBIN / TOTAL PROTEIN / URIC ACID: tissue Plasma
# [1] = 120 mg/kg, 120 h, dose level Low, time 5 day
# [2] = 1200 mg/kg, 72 h, dose level High, time 3 day
# [3] = 1200 mg/kg, 120 h, dose level High, time 5 day
smiles,measurement,setting,value
CCN(CC)CCNC(=O)c1cc(S(C)(=O)=O)ccc1OC [TIAPRIDE],ABSOLUTE BASOPHIL,[1],0 CELLS/uL
same,ABSOLUTE EOSINOPHIL,[1],28 CELLS/uL
same,ABSOLUTE LYMPHOCYTE,[1],7405.67 CELLS/uL
same,ABSOLUTE MONOCYTE,[1],0 CELLS/uL
same,ABSOLUTE SEGMENTED NEUTROPHIL,[1],299.67 CELLS/uL
same,BASOPHIL,[1],0%
same,EOSINOPHIL,[1],0.33%
same,ERYTHROCYTE COUNT,[1],5.54 x10E6/uL
same,HEMATOCRIT,[1],34.8%
same,HEMOGLOBIN,[1],13.1 G/DL
same,LEUKOCYTE COUNT,[1],7.73 x10E3/uL
same,LYMPHOCYTE,[1],95.67%
same,MEAN CORPUSCULAR HEMOGLOBIN,[1],23.67 pg
same,MEAN CORPUSCULAR HEMOGLOBIN CONCENTRATION,[1],37.7 G/DL
same,MEAN CORPUSCULAR VOLUME,[1],62.73 fL
same,MONOCYTE,[1],0%
same,NEUTROPHIL,[1],4%
same,NUCLEATED RED BLOOD CELLS,[1],0 /100WBC
same,PLATELET COUNT,[1],1102.33 x10E3/uL
same,ALANINE AMINOTRANSFERASE,[1],42 u/L
same,ALBUMIN,[1],4.3 G/DL
same,ALKALINE PHOSPHATASE,[1],382 u/L
same,ASPARTATE AMINOTRANSFERASE,[1],80.33 u/L
same,BLOOD UREA NITROGEN,[1],15.33 mg/dL
same,CARBON DIOXIDE,[1],27.67 mmol/L
same,CHLORIDE,[1],103 MEQ/L
same,CHOLESTEROL,[1],70.67 mg/dL
same,CREATINE PHOSPHOKINASE,[1],223.33 u/L
same,CREATININE,[1],0.19 mg/dL
same,GLUCOSE,[1],142.33 mg/dL
same,LACTATE DEHYDROGENASE,[1],132.33 u/L
same,LIPASE,[1],8.33 u/L
same,PHOSPHORUS,[1],11.83 mg/dL
same,POTASSIUM,[1],6.07 MEQ/L
same,SODIUM,[1],149.23 MEQ/L
same,TOTAL BILIRUBIN,[1],0.27 mg/dL
same,TOTAL PROTEIN,[1],6.03 G/DL
same,URIC ACID,[1],0.97 mg/dL
same,ABSOLUTE BASOPHIL,[2],0 CELLS/uL
same,ABSOLUTE EOSINOPHIL,[2],187.33 CELLS/uL
same,ABSOLUTE LYMPHOCYTE,[2],11272.67 CELLS/uL
same,ABSOLUTE MONOCYTE,[2],0 CELLS/uL
same,ABSOLUTE SEGMENTED NEUTROPHIL,[2],806.67 CELLS/uL
same,BASOPHIL,[2],0%
same,EOSINOPHIL,[2],1.33%
same,ERYTHROCYTE COUNT,[2],6.23 x10E6/uL
same,HEMATOCRIT,[2],38.93%
same,HEMOGLOBIN,[2],14.8 G/DL
same,LEUKOCYTE COUNT,[2],12.27 x10E3/uL
same,LYMPHOCYTE,[2],92.33%
same,MEAN CORPUSCULAR HEMOGLOBIN,[2],23.73 pg
same,MEAN CORPUSCULAR HEMOGLOBIN CONCENTRATION,[2],38.03 G/DL
same,MEAN CORPUSCULAR VOLUME,[2],62.5 fL
same,MONOCYTE,[2],0%
same,NEUTROPHIL,[2],6.33%
same,NUCLEATED RED BLOOD CELLS,[2],0 /100WBC
same,PLATELET COUNT,[2],1394 x10E3/uL
same,ALANINE AMINOTRANSFERASE,[2],38 u/L
same,ALBUMIN,[2],4.53 G/DL
same,ALKALINE PHOSPHATASE,[2],408 u/L
same,ASPARTATE AMINOTRANSFERASE,[2],80 u/L
same,BLOOD UREA NITROGEN,[2],22.33 mg/dL
same,CARBON DIOXIDE,[2],23.33 mmol/L
same,CHLORIDE,[2],107 MEQ/L
same,CHOLESTEROL,[2],76.33 mg/dL
same,CREATINE PHOSPHOKINASE,[2],431 u/L
same,CREATININE,[2],0.22 mg/dL
same,GLUCOSE,[2],189.67 mg/dL
same,LACTATE DEHYDROGENASE,[2],523.33 u/L
same,LIPASE,[2],8.33 u/L
same,PHOSPHORUS,[2],14.8 mg/dL
same,POTASSIUM,[2],6.75 MEQ/L
same,SODIUM,[2],147.23 MEQ/L
same,TOTAL BILIRUBIN,[2],0.27 mg/dL
same,TOTAL PROTEIN,[2],6.37 G/DL
same,URIC ACID,[2],1.9 mg/dL
same,ABSOLUTE BASOPHIL,[3],0 CELLS/uL
same,ABSOLUTE EOSINOPHIL,[3],212 CELLS/uL
same,ABSOLUTE LYMPHOCYTE,[3],15513 CELLS/uL
same,ABSOLUTE MONOCYTE,[3],0 CELLS/uL
same,ABSOLUTE SEGMENTED NEUTROPHIL,[3],1775 CELLS/uL
same,BASOPHIL,[3],0%
same,EOSINOPHIL,[3],1%
same,ERYTHROCYTE COUNT,[3],5.86 x10E6/uL
same,HEMATOCRIT,[3],36.5%
same,HEMOGLOBIN,[3],13.9 G/DL
same,LEUKOCYTE COUNT,[3],17.5 x10E3/uL
same,LYMPHOCYTE,[3],89.33%
same,MEAN CORPUSCULAR HEMOGLOBIN,[3],23.73 pg
same,MEAN CORPUSCULAR HEMOGLOBIN CONCENTRATION,[3],38.1 G/DL
same,MEAN CORPUSCULAR VOLUME,[3],62.33 fL
same,MONOCYTE,[3],0%
same,NEUTROPHIL,[3],9.67%
same,NUCLEATED RED BLOOD CELLS,[3],0 /100WBC
same,PLATELET COUNT,[3],1226 x10E3/uL
same,ALANINE AMINOTRANSFERASE,[3],48.67 u/L
same,ALBUMIN,[3],4.17 G/DL
same,ALKALINE PHOSPHATASE,[3],452.67 u/L
same,ASPARTATE AMINOTRANSFERASE,[3],83.67 u/L
same,BLOOD UREA NITROGEN,[3],17.33 mg/dL
same,CARBON DIOXIDE,[3],26.33 mmol/L
same,CHLORIDE,[3],102.67 MEQ/L
same,CHOLESTEROL,[3],66 mg/dL
same,CREATINE PHOSPHOKINASE,[3],508.33 u/L
same,CREATININE,[3],0.27 mg/dL
same,GLUCOSE,[3],161.67 mg/dL
same,LACTATE DEHYDROGENASE,[3],191.33 u/L
same,LIPASE,[3],8 u/L
same,PHOSPHORUS,[3],14.53 mg/dL
same,POTASSIUM,[3],6.21 MEQ/L
same,SODIUM,[3],146.03 MEQ/L
same,TOTAL BILIRUBIN,[3],0.27 mg/dL
same,TOTAL PROTEIN,[3],6.03 G/DL
same,URIC ACID,[3],1.73 mg/dL
